From patent US20060063759A1, “Tricyclic steroid hormone nuclear receptor modulators” (priority 2002, published 2006)

Columns and labels:
[1] = molecular target: T1, glucocorticoid receptor (Homo sapiens, UniProt P04150); test: Glucocorticoid Receptor Binding Assay ([3H]-dexamethasone, A549 cell extract); conditions: [3H]-dexamethasone binding, read-out: GR Ki
T1 construct: containing 50-200 ug of A549 cell extract and 1.86 nM [^3H]-dexamethasone; host or cells: A549 human lung epithelial cells (sonicated cell extract)
T1 sequence (P04150 1-777): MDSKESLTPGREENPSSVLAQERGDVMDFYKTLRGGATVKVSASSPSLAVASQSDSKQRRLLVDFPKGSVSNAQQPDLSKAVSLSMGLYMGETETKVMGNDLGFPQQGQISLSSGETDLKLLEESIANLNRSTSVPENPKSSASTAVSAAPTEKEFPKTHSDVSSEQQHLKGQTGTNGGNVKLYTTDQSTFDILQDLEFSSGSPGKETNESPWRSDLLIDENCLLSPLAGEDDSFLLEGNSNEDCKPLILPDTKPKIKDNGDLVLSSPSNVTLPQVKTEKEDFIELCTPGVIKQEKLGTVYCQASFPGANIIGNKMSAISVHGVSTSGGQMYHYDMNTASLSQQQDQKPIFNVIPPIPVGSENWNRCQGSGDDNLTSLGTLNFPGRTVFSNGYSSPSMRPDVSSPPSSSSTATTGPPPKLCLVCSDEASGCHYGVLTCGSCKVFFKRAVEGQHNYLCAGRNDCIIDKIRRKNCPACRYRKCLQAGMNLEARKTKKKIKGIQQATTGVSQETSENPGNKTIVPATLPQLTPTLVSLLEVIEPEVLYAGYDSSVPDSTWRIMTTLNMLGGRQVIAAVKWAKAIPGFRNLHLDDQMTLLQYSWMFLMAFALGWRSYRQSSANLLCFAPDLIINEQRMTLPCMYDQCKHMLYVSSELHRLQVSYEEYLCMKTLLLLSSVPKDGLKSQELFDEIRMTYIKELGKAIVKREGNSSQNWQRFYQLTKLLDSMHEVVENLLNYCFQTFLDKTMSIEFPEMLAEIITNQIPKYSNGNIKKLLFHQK
Outline: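 Displacement of [3H]-dexamethasone (1.86 nM) from glucocorticoid receptor in sonicated A549 lung epithelial cell extracts, 16 h at 4 °C, pH 7.2 molybdate-containing buffer. Bound radioactivity was scintillation-counted after charcoal/dextran stripping of free ligand.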

[2] = molecular target: T2, human MR (Homo sapiens, UniProt P08235); test: Mineralocorticoid Receptor Binding Assay ([3H]-aldosterone); conditions: [3H]-aldosterone binding, human MR expressed in Sf9 cells; read-out: MR Ki
T2 construct: The full length human MR gene is cloned from a human kidney or human brain cDNA library; His tag from the pAcHLT vector (own knowledge); made in house; host or cells: Sf9 insect cells (baculovirus, pAcHLT transfer vector)
T2 sequence (P08235 1-984): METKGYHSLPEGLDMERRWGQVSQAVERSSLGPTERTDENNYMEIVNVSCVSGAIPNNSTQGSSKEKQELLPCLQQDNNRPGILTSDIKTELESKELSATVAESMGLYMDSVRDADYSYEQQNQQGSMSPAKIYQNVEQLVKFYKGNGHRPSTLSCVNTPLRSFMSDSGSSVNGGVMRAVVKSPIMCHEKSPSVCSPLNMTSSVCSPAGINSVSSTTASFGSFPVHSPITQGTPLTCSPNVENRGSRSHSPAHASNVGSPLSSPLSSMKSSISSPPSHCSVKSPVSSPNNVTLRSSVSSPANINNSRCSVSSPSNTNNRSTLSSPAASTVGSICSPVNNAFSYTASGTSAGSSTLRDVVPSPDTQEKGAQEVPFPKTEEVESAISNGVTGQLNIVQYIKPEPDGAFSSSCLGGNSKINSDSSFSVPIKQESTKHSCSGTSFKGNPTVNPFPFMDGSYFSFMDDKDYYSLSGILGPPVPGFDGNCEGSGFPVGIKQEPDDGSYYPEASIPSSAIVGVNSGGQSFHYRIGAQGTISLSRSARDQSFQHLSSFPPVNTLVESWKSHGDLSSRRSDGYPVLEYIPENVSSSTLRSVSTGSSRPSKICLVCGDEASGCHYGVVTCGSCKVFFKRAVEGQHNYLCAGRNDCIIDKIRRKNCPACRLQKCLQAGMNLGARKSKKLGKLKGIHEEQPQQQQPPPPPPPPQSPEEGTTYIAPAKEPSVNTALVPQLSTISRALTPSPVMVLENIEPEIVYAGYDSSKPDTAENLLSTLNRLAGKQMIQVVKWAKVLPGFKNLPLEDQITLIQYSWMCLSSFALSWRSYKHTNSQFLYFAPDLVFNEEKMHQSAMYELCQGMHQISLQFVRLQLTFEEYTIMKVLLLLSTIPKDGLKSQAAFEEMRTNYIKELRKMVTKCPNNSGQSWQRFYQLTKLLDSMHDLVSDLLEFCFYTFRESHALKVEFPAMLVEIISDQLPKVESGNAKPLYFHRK
Outline: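 Receptor source: freeze-thaw lysate of baculovirus-infected Sf9 cells carrying full-length human MR, 20-25 μg protein. Incubation ~16 h at 4 °C with shaking, pH 7.5 buffer containing 30 mM sodium molybdate and 10% glycerol.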

| SMILES | Ki [1] | Ki [2] |
| --- | --- | --- |
| O=C(Nc1cccc(/C=C2/c3ccccc3CCc3cc(Cl)ccc32)c1)C(F)(F)F [Example 414] | < 500 nM | < 500 nM |
| CS(=O)(=O)Nc1cccc(/C=C2/c3ccccc3CCc3cc(C(N)=O)ccc32)c1 [Example 415] | < 500 nM | < 500 nM |
| CS(=O)(=O)Nc1cccc(/C=C2\c3ccccc3CCc3cc(C(N)=O)ccc32)c1 [Example 416] | < 500 nM | < 500 nM |
| CS(=O)(=O)Nc1cccc(/C=C2\c3ccccc3CCc3cc(C(=O)O)ccc32)c1 [Example 417] | < 500 nM | < 500 nM |
| CS(=O)(=O)Nc1cccc(/C=C2/c3ccccc3CCc3cc(C(=O)O)ccc32)c1 [Example 418] | < 1000 nM | < 500 nM |
| COc1ccc2c(c1)CCc1cc(C)ccc1C2=Cc1cccc(NS(C)(=O)=O)c1 [Example 419] | < 500 nM | < 500 nM |
| Cc1ccc2c(c1)CCc1cc(F)ccc1C2=Cc1cccc(NS(C)(=O)=O)c1 [Example 420] | < 500 nM | < 500 nM |
| Cc1ccc2c(c1)CCc1cc(F)ccc1/C2=C\c1cccc(NS(C)(=O)=O)c1 [Example 421] | < 500 nM | < 500 nM |
| Cc1ccc2c(c1)CCc1cc(F)ccc1/C2=C/c1cccc(NS(C)(=O)=O)c1 [Example 422] | < 500 nM | < 500 nM |
| COc1ccc2c(c1)CCc1cc(C)ccc1/C2=C\c1cccc(NS(C)(=O)=O)c1 [Example 423] | < 500 nM | < 500 nM |
| COc1ccc2c(c1)CCc1cc(C)ccc1/C2=C/c1cccc(NS(C)(=O)=O)c1 [Example 424] | < 500 nM | < 500 nM |
| CS(=O)(=O)Nc1cccc(C=C2c3ccccc3CCc3cc(OCCN4CCOCC4)ccc32)c1 [Example 427] | < 10000 nM | < 500 nM |
| O=c1[nH]c2cc(C=C3c4ccc(F)cc4CCc4cc(F)ccc43)ccc2n1CCN1CCOCC1 [Example 436, 5-(2,8-difluoro-10,11-dihydro-dibenzo[a,d]cyclohepten-5-ylidenemethyl)-1-(2-morpholin-4-yl-ethyl)-1,3-dihydro-benzoimidazol-2-one] | < 1000 nM | < 500 nM |
| C(=C1c2ccccc2CCc2ccccc21)c1cn[nH]c1 [Example 439] | < 500 nM | < 500 nM |
| Nc1nc2ccc(C=C3c4ccccc4CCc4ccccc43)cc2s1 [Example 442] | < 500 nM | < 500 nM |
| C(=C1c2ccccc2CCc2ccccc21)c1ccc2nc[nH]c2c1 [Example 443] | < 10000 nM | < 500 nM |
| Nc1n[nH]c2cc(C=C3c4ccccc4CCc4ccccc43)ccc12 [Example 444] | < 500 nM | < 500 nM |
| Nc1nc2ccc(C=C3c4ccccc4CCc4ccccc43)cc2[nH]1 [Example 445] | < 10000 nM | < 500 nM |
| CS(=O)(=O)Nc1csc(C=C2c3ccccc3CCc3ccccc32)n1 [Example 446] | < 500 nM | < 500 nM |
| O=C1Cc2ccc(C=C3c4ccccc4CCc4ccccc43)cc2N1 [Example 447] | < 500 nM | < 500 nM |
| O=c1[nH]c2ccc(/C=C3\c4ccccc4CCc4cc(F)ccc43)cc2[nH]1 [Example 448] | < 10000 nM | < 500 nM |

Other lines, results leading:

| Ki [1] | Ki [2] | SMILES |
| --- | --- | --- |
| < 10000 nM | < 500 nM | O=c1[nH]c2ccc(/C=C3/c4ccccc4CCc4cc(F)ccc43)cc2[nH]1 [Example 449] |
| < 500 nM | < 500 nM | O=c1[nH]c2cc(/C=C3/c4ccccc4CCc4cc(F)ccc43)ccc2o1 [Example 450] |
| < 10000 nM | < 500 nM | O=c1[nH]c2cc(/C=C3\c4ccccc4CCc4cc(F)ccc43)ccc2o1 [Example 451] |
| < 1000 nM | < 500 nM | O=c1[nH]c2ccc(/C=C3/c4ccccc4CCc4cc(C(F)F)ccc43)cc2[nH]1 [Example 452] |
| < 1000 nM | < 500 nM | O=c1[nH]c2ccc(/C=C3\c4ccccc4CCc4cc(C(F)F)ccc43)cc2[nH]1 [Example 453] |
| < 500 nM | < 500 nM | Cn1c(=O)[nH]c2cc(C=C3c4ccccc4CCc4ccccc43)ccc21 [Example 454] |
| < 10000 nM | < 500 nM | N#Cc1ccc2c(c1)CCc1ccccc1/C2=C/c1ccc2[nH]c(=O)[nH]c2c1 [Example 455] |
| < 10000 nM | < 500 nM | N#Cc1ccc2c(c1)CCc1ccccc1/C2=C\c1ccc2[nH]c(=O)[nH]c2c1 [Example 456] |
| < 500 nM | < 500 nM | O=c1[nH]c2cc(C=C3c4ccc(F)cc4CCc4cc(F)ccc43)ccc2s1 [Example 457] |
| < 500 nM | < 500 nM | O=c1[nH]c2cc(C=C3c4ccc(F)cc4CCc4cc(F)ccc43)ccc2o1 [Example 458] |
| < 1000 nM | < 500 nM | Cn1c(=O)[nH]c2cc(C=C3c4ccc(F)cc4CCc4cc(F)ccc43)ccc21 [Example 459] |
| < 1000 nM | < 500 nM | Nc1n[nH]c2cc(C=C3c4ccc(F)cc4CCc4cc(F)ccc43)ccc12 [Example 460] |
| < 500 nM | < 500 nM | Cn1c(=O)[nH]c2cc(/C=C3/c4ccccc4CCc4cc(F)ccc43)ccc21 [Example 461] |
| < 1000 nM | < 500 nM | Cn1c(=O)[nH]c2cc(/C=C3\c4ccccc4CCc4cc(F)ccc43)ccc21 [Example 462] |
| < 10000 nM | < 500 nM | O=c1[nH]c2ccc(C=C3c4ccccc4CCc4cc(F)cc(F)c43)cc2[nH]1 [Example 463] |
| < 10000 nM | < 500 nM | CC(C)n1c(=O)[nH]c2cc(C=C3c4ccc(F)cc4CCc4cc(F)ccc43)ccc21 [Example 464] |
| < 1000 nM | < 500 nM | O=c1[nH]c2ccc(/C=C3/c4ccccc4CCc4cccc(Cl)c43)cc2[nH]1 [Example 465] |
| < 1000 nM | < 500 nM | O=c1[nH]c2ccc(/C=C3\c4ccccc4CCc4cccc(Cl)c43)cc2[nH]1 [Example 466] |
| < 500 nM | < 500 nM | O=c1[nH]c2cc(C=C3c4ccccc4CCc4ccccc43)ccc2s1 [Example 467] |
| < 500 nM | < 500 nM | O=c1[nH]c2cc(/C=C3/c4ccccc4CCc4cc(F)ccc43)ccc2s1 [Example 468] |
| < 500 nM | < 500 nM | O=c1[nH]c2cc(/C=C3\c4ccccc4CCc4cc(F)ccc43)ccc2s1 [Example 469] |
| < 10000 nM | < 500 nM | O=c1[nH]c2ccc(C=C3c4cccc(F)c4CCc4c(F)cccc43)cc2[nH]1 [Example 470] |
| < 500 nM | < 500 nM | O=c1[nH]c2cc(C=C3c4cccc(F)c4CCc4c(F)cccc43)ccc2o1 [Example 471] |
| < 10000 nM | < 500 nM | O=c1[nH]c2ccc(/C=C3\c4ccccc4CCc4cc(C(F)(F)F)ccc43)cc2[nH]1 [Example 472] |
| < 10000 nM | < 500 nM | O=c1[nH]c2ccc(/C=C3/c4ccccc4CCc4cc(C(F)(F)F)ccc43)cc2[nH]1 [Example 473] |
